Values quoted from earlier work in US11433083B2, “High-strength testosterone undecanoate compositions” (priority 2010, dated 2022).

CCCCCCCCCCC(=O)O[C@H]1CC[C@H]2[C@@H]3CCC4=CC(=O)CC[C@]4(C)[C@H]3CC[C@]12C [Testosterone undecanoate, testosterone undecanoate]
water solubility: < 0.3 ng/mL
